Assay [1] deals with primary human fibroblasts derived from IPF patients (LL29 cells). In words: Inhibition of fibrosis (αSMA staining) in TGF-β1-treated primary human fibroblasts from IPF patients. The format is cell-based. To be noted: Fibroblast, 96 h, TGF-β1 20 ng/mL, 4 days. As for the experimental part: The above synthesized compounds were screened using primary human fibroblasts (derived from IPF patients) treated with TGF-β1 to determine their ability to inhibit the fibrotic process.
Compound Screening: Each compound was dissolved in DMSO as a 10 mM stock and used to prepare compound source plates. […] LL29 cells were plated at 1,500 cells/well in 80 μl/well F12 medium supplemented with 1% Fetal Bovine Serum. One hour after addition of the cells, TGF-β1 (Peprotech; 20 ng/mL) was added to the plates to induce fibrosis (ref. 1 and 2 above). Wells treated with TGF-β1 and containing DMSO were used as controls. Cells were incubated at 37° C. and 5% CO2 for 4 days. Following incubation for 4 days, SYTOX green nucleic acid stain (Life Technologies [Thermo Fisher Scientific]) was added to the wells at a final concentration of 1 uM and incubated at room temperature for 30 min. Cells were then fixed using 4% formaldehyde (Electron Microscopy Sciences), washed 3 times with PBS followed by blocking and permeabilization using 3% Bovine Serum Albumin (BSA; Sigma) and 0.3% Triton X-100 (Sigma) in PBS. Cells were then stained with antibody specific to α-smooth muscle actin (aSMA; Abcam) (ref. 1 and 2 above) in 3% Bovine Serum Albumin (BSA; Sigma) and 0.3% Triton X-100 (Sigma) in PBS, and incubated overnight at 4° C. […] Dead or apoptotic cells were excluded from analysis based on positive SYTOX green staining. % of total cells positive for αSMA were counted in each well and normalized to the average of 11 wells treated with TGF-β1 on the same plate using Dotmatics' Studies Software. […] The EC50 values are reported.

Assay [2] deals with Wnt activity (Sp5-Luc reporter, SW480 colon carcinoma cells). Description: Sp5-Luc Wnt reporter gene screening assay in SW480 colon carcinoma cells. To be noted: Homo sapiens. In general terms: A reporter such as luciferase makes a cellular process visible.

`CS(=O)(=O)NCc1cc(F)cc(-c2cccc3[nH]c(-c4n[nH]c5cnc(-c6cncc(CNCc7ccccc7)c6)cc45)nc23)c1` [Compound 439, N-(3-(2-(5-(5-((Benzylamino)methyl)pyridin-3-yl)-1H-pyrazolo[3,4-c]pyridin-3-yl)-1H-benzo[d]imidazol-4-yl)-5-fluorobenzyl)methanesulfonamide] displayed an EC50 in assay [1] of 9 nM. In assay [2], half-maximal inhibition (IC50) required 40.1 nM.

As for `CC(C)CC(=O)Nc1cncc(-c2cc3c(-c4nc5c(-c6cc(O)cc(F)c6)cccc5[nH]4)n[nH]c3cn2)c1` [Compound 1350, N-(5-(3-(4-(3-Fluoro-5-hydroxyphenyl)-1H-benzo[d]imidazol-2-yl)-1H-pyrazolo[3,4-c]pyridin-5-yl)pyridin-3-yl)-3-methylbutanamide], the EC50 in assay [1] came to 9 nM. This compound came in with an IC50 in assay [2] of more than 10000 nM.

With `O=C(Nc1cncc(-c2cc3c(-c4nc5c(-c6cccc(F)c6)cccc5[nH]4)n[nH]c3cn2)c1)C1CCC1` [Compound 20], the half-maximal effective concentration (EC50) in assay [1] was found to be 10 nM. Further, the midpoint of inhibition in assay [2], the IC50, lay at 74.4 nM.

In assay [1], `CC(=O)c1ccc(-c2cccc3[nH]c(-c4n[nH]c5cnc(-c6cncc(NC(=O)C7CCCCC7)c6)cc45)nc23)s1` [Compound 412, N-(5-(3-(4-(5-Acetylthiophen-2-yl)-1H-benzo[d]imidazol-2-yl)-1H-pyrazolo[3,4-c]pyridin-5-yl)pyridin-3-yl)cyclohexanecarboxamide] yielded a 50% effective concentration (EC50) of 9180 nM. Besides, in assay [2], the IC50 amounted to 150 nM.

As for `COc1cc(F)cc(-c2cccc3[nH]c(-c4n[nH]c5cnc(-c6cncc(NC(=O)CC(C)C)c6)cc45)nc23)c1` [Compound 1394, N-(5-(3-(4-(3-Fluoro-5-methoxyphenyl)-1H-benzo[d]imidazol-2-yl)-1H-pyrazolo[3,4-c]pyridin-5-yl)pyridin-3-yl)-3-methylbutanamide], in assay [1], the concentration for a half-maximal effect (EC50) stood at 21 nM. In addition, in assay [2], the IC50 came to 183 nM.

As to `CC(C)(C)CC(=O)Nc1cncc(-c2cc3c(-c4nc5ccccc5[nH]4)n[nH]c3cn2)c1` [Compound 250, N-(5-(3-(1H-Benzo[d]imidazol-2-yl)-1H-pyrazolo[3,4-c]pyridin-5-yl)pyridin-3-yl)-3,3-dimethylbutanamide], in assay [1], a half-maximal response (EC50) required 258 nM. This compound also had a half-maximal inhibitory concentration (IC50) in assay [2] of 183 nM.

`O=C(Nc1cncc(-c2cc3c(-c4nc5c(-c6ccccc6F)cccc5[nH]4)n[nH]c3cn2)c1)C1CCCC1` [Compound 73, N-(5-(3-(4-(2-Fluorophenyl)-1H-benzo[d]imidazol-2-yl)-1H-pyrazolo[3,4-c]pyridin-5-yl)pyridin-3-yl)cyclopentanecarboxamide]: the EC50 in assay [1] stood at 1190 nM. Also, half-maximal inhibition in assay [2] (IC50) was put at 123 nM.

Regarding `COc1cncc(-c2cc3c(-c4nc5c(-c6cccc(F)c6)cccc5[nH]4)n[nH]c3cn2)c1` [Compound 948, 3-(4-(3-Fluorophenyl)-1H-benzo[d]imidazol-2-yl)-5-(5-methoxypyridin-3-yl)-1H-pyrazolo[3,4-c]pyridine], in assay [1], the half-maximal effective concentration (EC50) came out at 72 nM. It took 33 nM to reach half-maximal inhibition in assay [2] (IC50).

In turn, `CCCC(=O)Nc1cncc(-c2cc3c(-c4nc5c(-c6ccsc6)cccc5[nH]4)n[nH]c3cn2)c1` [Compound 277, N-(5-(3-(4-(Thiophen-3-yl)-1H-benzo[d]imidazol-2-yl)-1H-pyrazolo[3,4-c]pyridin-5-yl)pyridin-3-yl)butyramide] registered a concentration giving a half-maximal response (EC50) in assay [1] of 9 nM. The half-inhibitory concentration (IC50) in assay [2] amounted to 43.5 nM.

The compound `CCCC(=O)Nc1cncc(-c2cc3c(-c4nc5c(-c6cccs6)cccc5[nH]4)n[nH]c3cn2)c1` [Compound 329, N-(5-(3-(4-(Thiophen-2-yl)-1H-benzo[d]imidazol-2-yl)-1H-pyrazolo[3,4-c]pyridin-5-yl)pyridin-3-yl)butyramide] had an EC50 in assay [1] of 67 nM. For the same compound, in assay [2], the half-maximal inhibitory concentration (IC50) turned out to be 56 nM.

In the case of `CCCCC(=O)Nc1cncc(-c2cc3c(-c4nc5c(-c6ccccn6)cccc5[nH]4)n[nH]c3cn2)c1` [Compound 148, N-(5-(3-(4-(Pyridin-2-yl)-1H-benzo[d]imidazol-2-yl)-1H-pyrazolo[3,4-c]pyridin-5-yl)pyridin-3-yl)pentanamide], the concentration giving a half-maximal response (EC50) in assay [1] came out at 225 nM. Further, half-maximal inhibition in assay [2] (IC50) was put at 177 nM.

The compound `CC(C)(C)C(=O)Nc1cncc(-c2cc3c(-c4nc5c(-c6cccs6)cccc5[nH]4)n[nH]c3cn2)c1` [Compound 320, N-(5-(3-(4-(Thiophen-2-yl)-1H-benzo[d]imidazol-2-yl)-1H-pyrazolo[3,4-c]pyridin-5-yl)pyridin-3-yl)pivalamide] had an EC50 in assay [1] of 96 nM. In assay [2], this compound gave a 50% inhibitory concentration (IC50) of 56.6 nM.

The compound `O=C(Nc1cncc(-c2cc3c(-c4nc5c(N6CCCCC6)cccc5[nH]4)n[nH]c3cn2)c1)C1CC1` [Compound 175, N-(5-(3-(4-(Piperidin-1-yl)-1H-benzo[d]imidazol-2-yl)-1H-pyrazolo[3,4-c]pyridin-5-yl)pyridin-3-yl)cyclopropanecarboxamide] gave an EC50 in assay [1] of 187 nM. In addition, half-maximal inhibition in assay [2] (IC50) was put at 76.9 nM.

Compound `Fc1cccc(-c2cccc3[nH]c(-c4n[nH]c5cnc(-c6ccccn6)cc45)nc23)c1` [Compound 953, 3-(4-(3-Fluorophenyl)-1H-benzo[d]imidazol-2-yl)-5-(pyridin-2-yl)-1H-pyrazolo[3,4-c]pyridine] yielded an EC50 in assay [1] of 9 nM. The compound also displayed an IC50 in assay [2] of 250 nM.

For the compound `c1cncc(-c2cccc3[nH]c(-c4n[nH]c5cnc(-c6cncc(CN7CCCCC7)c6)cc45)nc23)c1` [Compound 93, 5-(5-(Piperidin-1-ylmethyl)pyridin-3-yl)-3-(4-(pyridin-3-yl)-1H-benzo[d]imidazol-2-yl)-1H-pyrazolo[3,4-c]pyridine], a half-maximal response in assay [1] (EC50) required 9 nM. Further, the IC50 in assay [2] was determined as 534 nM.

In turn, `CC(C)(C)C(=O)Nc1cncc(-c2cc3c(-c4nc5c(-c6ccoc6)cccc5[nH]4)n[nH]c3cn2)c1` [Compound 294, N-(5-(3-(4-(Furan-3-yl)-1H-benzo[d]imidazol-2-yl)-1H-pyrazolo[3,4-c]pyridin-5-yl)pyridin-3-yl)pivalamide] registered a concentration for a half-maximal effect (EC50) in assay [1] of 9 nM. The half-maximal inhibitory concentration (IC50) in assay [2] is 48.6 nM.

`Oc1cncc(-c2cc3c(-c4nc5c(-c6cccc(F)c6)cccc5[nH]4)n[nH]c3cn2)c1` [Compound 949, 5-(3-(4-(3-Fluorophenyl)-1H-benzo[d]imidazol-2-yl)-1H-pyrazolo[3,4-c]pyridin-5-yl)pyridin-3-ol] had a 50% effective concentration (EC50) in assay [1] of 9990 nM. This compound displayed a concentration for half-maximal inhibition (IC50) in assay [2] of 29 nM.

The compound `CCC(=O)Nc1cncc(-c2cc3c(-c4nc5c(-c6cccs6)cccc5[nH]4)n[nH]c3cn2)c1` [Compound 313, N-(5-(3-(4-(Thiophen-2-yl)-1H-benzo[d]imidazol-2-yl)-1H-pyrazolo[3,4-c]pyridin-5-yl)pyridin-3-yl)propionamide] showed an EC50 in assay [1] of 455 nM. In assay [2], this compound gave an IC50 of 126 nM.

Regarding `Fc1cccc(-c2cccc3[nH]c(-c4n[nH]c5cnc(-c6cncc(CN7CCC(F)(F)C7)c6)cc45)nc23)c1` [Compound 25, 5-(5-((3,3-Difluoropyrrolidin-1-yl)methyl)pyridin-3-yl)-3-(4-(3-fluorophenyl)-1H-benzo[d]imidazol-2-yl)-1H-pyrazolo[3,4-c]pyridine], the concentration giving a half-maximal response (EC50) in assay [1] is 48 nM. The midpoint of inhibition in assay [2], the IC50, lay at 87.3 nM.

Consider `CN1CCN(c2cccc3[nH]c(-c4n[nH]c5cnc(-c6cncc(NC(=O)C7CCCC7)c6)cc45)nc23)CC1` [Compound 229, N-(5-(3-(4-(4-Methylpiperazin-1-yl)-1H-benzo[d]imidazol-2-yl)-1H-pyrazolo[3,4-c]pyridin-5-yl)pyridin-3-yl)cyclopentanecarboxamide], for which, in assay [1], the EC50 turned out to be 9990 nM. The compound also had an IC50 in assay [2] of 628 nM.

As usually defined, the EC50 is the midpoint of the concentration-response curve. Read a high EC50 as weaker potency. The IC50 is the concentration needed to halve the response being measured. A higher IC50 goes with weaker potency.

Source of the values: patent US10202377B2, “3-(1H-benzo[D]imidazol-2-yl)-1H-pyrazolo[3,4-C]pyridine and therapeutic uses thereof” (Samumed, LLC, priority 2014, dated 2019).
